In paper PMC6458995, “MAP4K4 Inhibition Promotes Survival of Human Stem Cell-Derived Cardiomyocytes and Reduces Infarct Size In Vivo” (Cell Stem Cell, 2019):
Where two headings read alike, the source gives them in different places.

What was measured:
PHK = assay: Dundee kinase panel; type: biochemical, human; conditions: 1 μM
Description: (§1) Compounds were screened at 1 μM. For key hits, pIC50 values were then determined by HTRF as above. […] Stability in mouse and human liver microsomes was determined by Cyprotex.

AMPK = assay: Dundee kinase panel; type: biochemical, human; conditions: 1 μM
Description: as §1

recombinant human MAP4K4 = target: T1, recombinant human MAP4K4 (Homo sapiens, UniProt O95819); assay: In vitro MAP4K4 kinase activity assay (HTRF Transcreener ADP); type: biochemical
T1 construct: Human MAP4K4 kinase domain (aa 1-328); purchased Invitrogen PV3687
Description: MAP4K4 kinase activity was monitored using the CisBio HTRF Transcreener ADP assay, a competitive immunoassay with a reproducible Z’ > 0.6. In the detection step, endogenous ADP and d2-labeled ADP compete for binding an anti-ADP monoclonal antibody labeled with Eu^3+ cryptate. […] Assays were run in Greiner low volume plates with a final reaction volume of 10 μl. Percent inhibition was calculated from 100% activity of MAP4K4 (DMSO only) and 0% activity (no enzyme added). Data were either reported as % inhibition at a single dose or as pIC50 values derived from dose response curves (pIC50 = -log[IC50]).

LKB1 = target: T2, LKB1 (Homo sapiens, UniProt Q15831); assay: Dundee kinase panel; type: biochemical; conditions: for remaining activity at 1 µM: read-out: residual activity
T2 construct: lines 1-140) and Reaction Biology
T2 sequence (Q15831 1-433): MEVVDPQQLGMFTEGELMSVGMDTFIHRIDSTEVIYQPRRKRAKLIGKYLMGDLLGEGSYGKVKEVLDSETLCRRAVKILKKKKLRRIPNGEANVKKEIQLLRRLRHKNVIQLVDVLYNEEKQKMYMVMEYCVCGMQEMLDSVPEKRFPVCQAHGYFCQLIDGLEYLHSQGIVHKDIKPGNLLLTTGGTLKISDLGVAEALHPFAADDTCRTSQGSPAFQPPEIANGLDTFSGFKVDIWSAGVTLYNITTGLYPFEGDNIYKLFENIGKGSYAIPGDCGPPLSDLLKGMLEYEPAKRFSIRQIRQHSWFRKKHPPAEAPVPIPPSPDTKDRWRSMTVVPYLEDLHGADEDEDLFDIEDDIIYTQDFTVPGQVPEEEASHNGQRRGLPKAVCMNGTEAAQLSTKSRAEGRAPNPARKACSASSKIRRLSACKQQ
T2 sequence (Q7RTN6 1-431 partner): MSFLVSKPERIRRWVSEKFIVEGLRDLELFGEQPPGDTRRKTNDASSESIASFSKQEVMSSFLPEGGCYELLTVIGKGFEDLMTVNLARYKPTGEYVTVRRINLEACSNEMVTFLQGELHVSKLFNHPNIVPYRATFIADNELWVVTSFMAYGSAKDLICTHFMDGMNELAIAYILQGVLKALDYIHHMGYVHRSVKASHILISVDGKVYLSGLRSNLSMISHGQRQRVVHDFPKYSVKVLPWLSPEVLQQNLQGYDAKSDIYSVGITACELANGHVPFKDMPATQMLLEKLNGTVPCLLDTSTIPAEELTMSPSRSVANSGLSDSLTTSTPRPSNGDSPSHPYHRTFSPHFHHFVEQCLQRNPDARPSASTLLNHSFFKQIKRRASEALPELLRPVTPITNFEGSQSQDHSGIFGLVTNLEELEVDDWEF
T2 sequence (Q9Y376 1-341 partner): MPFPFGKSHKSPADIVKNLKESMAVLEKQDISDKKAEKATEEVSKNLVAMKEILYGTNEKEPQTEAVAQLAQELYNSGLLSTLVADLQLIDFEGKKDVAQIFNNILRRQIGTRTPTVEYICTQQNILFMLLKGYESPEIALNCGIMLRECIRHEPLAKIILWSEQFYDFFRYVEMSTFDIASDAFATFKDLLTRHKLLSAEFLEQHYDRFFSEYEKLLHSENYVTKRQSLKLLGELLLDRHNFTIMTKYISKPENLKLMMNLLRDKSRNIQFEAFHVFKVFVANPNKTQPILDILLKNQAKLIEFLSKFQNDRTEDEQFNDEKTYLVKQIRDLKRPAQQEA
Description: as §1

IRR = target: T3, IRR (Homo sapiens, UniProt P14616); assay: Dundee kinase panel; type: biochemical; conditions: for remaining activity at 1 µM: read-out: residual activity
T3 construct: lines 1-140) and Reaction Biology
Description: as §1

BRSK2 = target: T4, BRSK2 (Homo sapiens, UniProt Q8IWQ3); assay: Dundee kinase panel; type: biochemical; conditions: for remaining activity at 1 µM: read-out: residual activity
T4 construct: lines 1-140) and Reaction Biology
T4 sequence (Q8IWQ3 1-736): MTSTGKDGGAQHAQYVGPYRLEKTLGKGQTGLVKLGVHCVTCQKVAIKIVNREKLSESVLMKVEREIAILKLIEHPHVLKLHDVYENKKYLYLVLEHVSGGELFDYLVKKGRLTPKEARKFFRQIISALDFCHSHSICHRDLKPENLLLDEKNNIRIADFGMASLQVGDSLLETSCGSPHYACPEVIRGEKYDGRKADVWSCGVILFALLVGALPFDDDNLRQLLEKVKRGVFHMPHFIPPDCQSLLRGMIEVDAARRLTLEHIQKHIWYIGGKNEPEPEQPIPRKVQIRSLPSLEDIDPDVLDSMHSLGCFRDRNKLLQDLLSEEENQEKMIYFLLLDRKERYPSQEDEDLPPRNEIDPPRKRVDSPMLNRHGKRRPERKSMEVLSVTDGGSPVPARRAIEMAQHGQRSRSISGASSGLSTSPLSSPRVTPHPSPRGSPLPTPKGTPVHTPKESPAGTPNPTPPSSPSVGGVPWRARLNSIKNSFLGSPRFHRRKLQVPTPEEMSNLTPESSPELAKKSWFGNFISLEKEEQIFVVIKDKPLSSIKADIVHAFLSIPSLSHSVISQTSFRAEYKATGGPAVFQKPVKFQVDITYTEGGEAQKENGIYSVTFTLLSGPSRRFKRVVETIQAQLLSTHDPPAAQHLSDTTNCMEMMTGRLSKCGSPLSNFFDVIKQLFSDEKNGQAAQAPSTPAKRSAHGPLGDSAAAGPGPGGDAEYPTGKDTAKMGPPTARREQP
Description: as §1

CSK = target: T5, CSK (Homo sapiens, UniProt P41240); assay: Dundee kinase panel; type: biochemical; conditions: for remaining activity at 1 µM: read-out: residual activity
T5 construct: lines 1-140) and Reaction Biology
Description: as §1

SmMLCK = target: T6, SmMLCK (Homo sapiens, UniProt Q15746); assay: Dundee kinase panel; type: biochemical; conditions: for remaining activity at 1 µM: read-out: residual activity
T6 construct: lines 1-140) and Reaction Biology
Description: as §1

SRPK1 = target: T7, SRPK1 (Homo sapiens, UniProt Q96SB4); assay: Dundee kinase panel; type: biochemical; conditions: for remaining activity at 1 µM: read-out: residual activity
T7 construct: lines 1-140) and Reaction Biology
Description: as §1

[1] = MAP4K4, HTRF Transcreener ADP assay, read-out: pIC50 (converted)
[2] = dose-response, Figure 2C, read-out: IC50 against recombinant human MAP4K4

T1 sequence (O95819 1-328): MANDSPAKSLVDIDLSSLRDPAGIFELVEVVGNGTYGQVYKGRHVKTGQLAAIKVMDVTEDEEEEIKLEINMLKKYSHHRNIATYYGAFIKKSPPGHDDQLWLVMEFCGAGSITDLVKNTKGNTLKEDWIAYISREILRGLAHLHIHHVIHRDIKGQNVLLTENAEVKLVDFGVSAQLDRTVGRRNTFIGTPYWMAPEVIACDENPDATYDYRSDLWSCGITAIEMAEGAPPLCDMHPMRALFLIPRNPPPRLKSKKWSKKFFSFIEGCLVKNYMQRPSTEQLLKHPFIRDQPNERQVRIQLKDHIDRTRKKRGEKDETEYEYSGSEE
T5 sequence (P41240 whole entry): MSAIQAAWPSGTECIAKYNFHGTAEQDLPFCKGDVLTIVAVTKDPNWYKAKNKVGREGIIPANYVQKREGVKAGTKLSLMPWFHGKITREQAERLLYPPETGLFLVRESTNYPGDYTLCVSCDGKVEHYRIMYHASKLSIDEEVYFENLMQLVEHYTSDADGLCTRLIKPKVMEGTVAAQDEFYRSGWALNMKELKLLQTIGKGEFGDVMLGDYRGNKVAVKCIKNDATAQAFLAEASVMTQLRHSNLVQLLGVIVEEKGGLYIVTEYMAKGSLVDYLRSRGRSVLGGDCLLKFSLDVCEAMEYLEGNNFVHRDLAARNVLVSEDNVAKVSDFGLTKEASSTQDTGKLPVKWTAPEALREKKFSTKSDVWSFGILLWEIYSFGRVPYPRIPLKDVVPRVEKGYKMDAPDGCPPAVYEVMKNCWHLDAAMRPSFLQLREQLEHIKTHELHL
T6 sequence (Q15746 923-1914): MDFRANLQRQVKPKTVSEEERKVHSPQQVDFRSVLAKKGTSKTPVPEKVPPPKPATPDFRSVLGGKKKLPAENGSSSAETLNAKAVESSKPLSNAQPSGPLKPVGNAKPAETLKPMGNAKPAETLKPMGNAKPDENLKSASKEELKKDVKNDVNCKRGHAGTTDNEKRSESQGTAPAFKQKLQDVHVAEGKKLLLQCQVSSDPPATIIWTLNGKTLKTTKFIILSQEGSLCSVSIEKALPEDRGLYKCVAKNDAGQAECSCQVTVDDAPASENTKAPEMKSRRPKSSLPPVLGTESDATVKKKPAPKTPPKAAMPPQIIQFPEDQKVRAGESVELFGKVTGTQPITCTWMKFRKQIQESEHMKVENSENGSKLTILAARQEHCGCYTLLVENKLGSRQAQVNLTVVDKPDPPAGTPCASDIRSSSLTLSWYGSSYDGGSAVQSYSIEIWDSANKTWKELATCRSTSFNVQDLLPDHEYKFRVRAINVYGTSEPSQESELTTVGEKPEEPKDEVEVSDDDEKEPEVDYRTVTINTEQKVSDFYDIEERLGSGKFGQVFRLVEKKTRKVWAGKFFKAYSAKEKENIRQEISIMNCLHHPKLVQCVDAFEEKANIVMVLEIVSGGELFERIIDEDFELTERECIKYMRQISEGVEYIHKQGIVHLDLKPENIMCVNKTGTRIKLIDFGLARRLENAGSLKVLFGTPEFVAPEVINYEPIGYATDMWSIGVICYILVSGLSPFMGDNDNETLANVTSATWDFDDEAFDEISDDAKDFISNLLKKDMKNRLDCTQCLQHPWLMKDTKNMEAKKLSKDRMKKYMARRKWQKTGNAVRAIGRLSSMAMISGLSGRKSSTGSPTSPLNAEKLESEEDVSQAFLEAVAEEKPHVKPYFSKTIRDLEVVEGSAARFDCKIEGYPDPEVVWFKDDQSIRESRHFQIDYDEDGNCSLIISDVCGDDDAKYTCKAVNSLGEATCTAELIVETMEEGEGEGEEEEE
T7 sequence (Q96SB4 whole entry): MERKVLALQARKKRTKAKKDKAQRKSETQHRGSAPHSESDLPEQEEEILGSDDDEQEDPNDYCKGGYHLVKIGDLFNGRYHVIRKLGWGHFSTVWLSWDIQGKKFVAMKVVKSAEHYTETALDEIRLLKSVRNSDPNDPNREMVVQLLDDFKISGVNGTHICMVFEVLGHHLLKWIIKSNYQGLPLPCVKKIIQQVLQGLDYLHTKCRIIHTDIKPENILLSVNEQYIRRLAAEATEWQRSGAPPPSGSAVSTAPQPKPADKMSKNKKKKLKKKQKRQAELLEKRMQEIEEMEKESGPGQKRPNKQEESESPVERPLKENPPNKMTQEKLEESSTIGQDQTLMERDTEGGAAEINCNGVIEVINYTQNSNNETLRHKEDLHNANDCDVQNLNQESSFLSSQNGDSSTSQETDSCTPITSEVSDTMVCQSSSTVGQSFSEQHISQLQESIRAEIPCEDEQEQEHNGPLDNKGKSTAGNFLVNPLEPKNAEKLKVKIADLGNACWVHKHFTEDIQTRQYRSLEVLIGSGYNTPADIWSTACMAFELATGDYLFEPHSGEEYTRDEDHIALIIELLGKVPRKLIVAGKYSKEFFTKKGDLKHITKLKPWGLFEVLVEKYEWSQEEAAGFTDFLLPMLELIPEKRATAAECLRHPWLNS
T3 sequence (P14616 27-1297): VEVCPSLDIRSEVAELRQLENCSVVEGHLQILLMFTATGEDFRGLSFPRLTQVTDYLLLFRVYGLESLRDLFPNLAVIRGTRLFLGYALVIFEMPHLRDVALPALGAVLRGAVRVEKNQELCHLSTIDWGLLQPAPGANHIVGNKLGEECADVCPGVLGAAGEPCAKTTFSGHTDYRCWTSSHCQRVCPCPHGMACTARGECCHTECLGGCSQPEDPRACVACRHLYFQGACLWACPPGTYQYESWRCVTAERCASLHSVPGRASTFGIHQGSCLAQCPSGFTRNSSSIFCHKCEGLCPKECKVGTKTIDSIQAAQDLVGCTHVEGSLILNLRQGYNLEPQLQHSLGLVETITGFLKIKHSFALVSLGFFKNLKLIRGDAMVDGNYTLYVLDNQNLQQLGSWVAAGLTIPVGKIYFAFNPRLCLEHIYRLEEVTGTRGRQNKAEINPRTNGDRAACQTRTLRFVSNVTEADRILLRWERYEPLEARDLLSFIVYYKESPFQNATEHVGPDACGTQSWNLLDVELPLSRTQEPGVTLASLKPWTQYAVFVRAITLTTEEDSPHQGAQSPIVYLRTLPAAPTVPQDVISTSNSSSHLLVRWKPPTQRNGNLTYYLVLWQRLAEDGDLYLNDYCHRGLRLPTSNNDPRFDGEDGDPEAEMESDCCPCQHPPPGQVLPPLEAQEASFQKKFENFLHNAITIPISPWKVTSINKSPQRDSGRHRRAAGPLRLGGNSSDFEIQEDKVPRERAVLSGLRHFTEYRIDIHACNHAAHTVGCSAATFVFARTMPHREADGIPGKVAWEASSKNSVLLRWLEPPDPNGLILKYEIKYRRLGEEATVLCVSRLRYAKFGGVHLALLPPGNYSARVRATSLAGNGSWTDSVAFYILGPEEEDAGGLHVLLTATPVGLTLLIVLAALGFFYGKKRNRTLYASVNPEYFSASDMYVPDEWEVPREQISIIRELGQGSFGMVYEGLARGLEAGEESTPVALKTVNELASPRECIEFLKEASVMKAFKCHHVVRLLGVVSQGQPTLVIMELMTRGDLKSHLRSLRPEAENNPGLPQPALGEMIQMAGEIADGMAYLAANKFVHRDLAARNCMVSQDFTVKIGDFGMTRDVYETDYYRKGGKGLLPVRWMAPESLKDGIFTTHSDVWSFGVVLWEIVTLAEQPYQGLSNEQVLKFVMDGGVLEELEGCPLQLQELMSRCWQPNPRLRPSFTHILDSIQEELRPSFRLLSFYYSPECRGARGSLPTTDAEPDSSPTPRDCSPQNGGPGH

Row | Structure (SMILES) | residual activity (PHK) | residual activity (AMPK) | fold greater potency compared with F1386-0303 (recombinant human MAP4K4) | IC50 (recombinant human MAP4K4; [1]) | remaining activity at 1 µM (LKB1) | remaining activity at 1 µM (IRR) | remaining activity at 1 µM (BRSK2) | remaining activity at 1 µM (CSK) | remaining activity at 1 µM (SmMLCK) | remaining activity at 1 µM (SRPK1) | IC50 (recombinant human MAP4K4; [2]) | residual activity (LKB1; 1 μM) | residual activity (IRR; 1 μM) | residual activity (BRSK2; 1 μM) | residual activity (CSK; 1 μM) | residual activity (SmMLCK; 1 μM) | residual activity (SRPK1; 1 μM)
1 | COCCOc1ccc(-c2cn(-c3ccccc3)c3nc[nH]c(=O)c23)cc1 [DMX-5804, 5-[4-(2-methoxy-ethoxy)-phenyl]-7-phenyl-3,7-dihydro-pyrrolo[2,3-d]pyrimidin-4-one] | 102% | 87% | 10 fold | 2.82 nM | 105% | 96% | 92% | 103% | 89% | 91% |  |  |  |  |  |  | 
2 | Oc1ncnc2c1c(-c1ccccc1)cn2-c1ccccc1 [F1386-0303, 5,7-diphenyl-7H-pyrrolo[2,3-d]pyrimidin-4-ol] | 106% | 114% |  | 34.7 nM | 96% | 95% | 91% | 97% | 76% | 112% | 34 nM |  |  |  |  |  | 
3 | Nc1ncc(C(=O)NC2CN(C(=O)C3CC3)C2)c2ccc(-c3cccc(F)c3)nc12 [GNE-495] | 96% | 81% |  |  |  |  |  |  |  |  |  | 87% | 83% | 77% | 94% | 68% | 105%
4 | O=C1Nc2ccc(I)cc2/C1=C/c1cc(Br)c(O)c(Br)c1 [GW5074] | 26% | 42% |  |  | 68% | 61% | 75% | 52% | 40% | 8% | 30 nM |  |  |  |  |  | 
5 | O=C1Cc2c([nH]c3ccc(Br)cc23)-c2ccccc2N1 [Kenpaullone] | 20% | 64% |  |  | 89% | 89% | 35% | 68% | 97% | 36% | 30 nM |  |  |  |  |  | 
